Laboratory results as given in patent US5514662A, “Use of amphotericin B derivatives as protease inhibitors” (priority 1991, dated 1996).
Where two headings read alike, the source gives them in different places.

Assays:
[1] = test system: HIV-1; settings: cited from earlier work
[2] = target: T1, trypsin (Bos taurus, UniProt P00760); assay: Inhibition of trypsin; assay type: biochemical
T1 sequence (P00760 24-246): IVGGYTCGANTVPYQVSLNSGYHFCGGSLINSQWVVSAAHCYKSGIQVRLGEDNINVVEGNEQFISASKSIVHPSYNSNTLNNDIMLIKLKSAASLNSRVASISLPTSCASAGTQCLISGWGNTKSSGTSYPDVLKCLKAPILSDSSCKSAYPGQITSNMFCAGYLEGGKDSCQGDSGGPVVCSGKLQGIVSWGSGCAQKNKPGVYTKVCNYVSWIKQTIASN

[3] = test system: HIV-1; settings: T cells infected in vitro; cited from earlier work
[4] = test system: HIV; settings: cited from earlier work
[5] = patients; cited from earlier work
[6] = test system: DNA and RNA viruses containing a lipid envelope; settings: in vitro; cited from earlier work
[7] = test system: HRV14; assay: Cytopathogenic effect of HRV14 in HeLa-Ohio cells; assay type: cell-based; settings: 0.03 to 100 μM, added 1 hour after infection
Experimental: HeLa-Ohio cells cultured until they have become confluent, are infected with a suspension of HRV14 virus. The cytopathogenic effect of the virus is evaluated by staining the cells with a 0.5% solution of crystal violet and 20% of methanol; after rinsing the plates with water, the optical density is read at 550 nm.
For the rest of the experiment, the cells are infected with a viral suspension with a titre such that 50% of the cells are killed after 3 days on control cells not receiving any treatment. 1 hour after the infection, the test product (AmB or DABF-AmB) is added at concentrations ranging from 0.03 to 100 μM. The percentage inhibition of the cytopathogenic effect is determined as follows:
OD (treated infected cells)-OD (infected cells)!
OD (healthy cells)-OD (infected cells)!
The effect of the addition of DABF-AmB was tested at various times: preincubation of the cells with DABF-AmB before the viral infection; addition of DABF-AmB at the time of the infection; addition of DABF-AmB after the infection, during the period of viral proliferation.

[8] = Cytotoxicity in HeLa-Ohio cells; assay type: cell-based, human; settings: human, hela-ohio cells; read-out: concentration above which cytotoxic
[9] = read-out: % inhibition of trypsin relative to a control without inhibitor

## COC(=O)[C@H]1[C@@H]2C[C@@H](O[C@@H]3O[C@H](C)[C@@H](O)[C@H](N)[C@@H]3O)/C=C/C=C/C=C/C=C/C=C/C=C/C=C/[C@H](C)[C@@H](O)[C@@H](C)[C@H](C)OC(=O)C[C@H](O)C[C@H](O)CC[C@@H](O)[C@H](O)C[C@H](O)C[C@](O)(C[C@@H]1O)O2 [AME, methyl ester of amphotericin B]
[1]; HIV-infected lymphocytes preincubated
  capacity of preincubated HIV-infected lymphocytes to form syncytia with uninfected cells: increased
[1]; lymphocytes preincubated
  inhibition of infection by preincubation of healthy lymphocytes prior to infection: inhibits the infection
[2]; [9]
  inhibition at 1 µM: ~10%
[3]
  inhibition of cell death and of viral expression: inhibitors of cell death and of viral expression

## Cc1cn([C@H]2C[C@H](N=[N+]=[N-])[C@@H](CO)O2)c(=O)[nH]c1=O [AZT, 3'-azido-2',3'-dideoxythymidine]
[4]; human, in vivo
  side effects of treatment: severe side effects of treatment with AZT, in particular a degeneration of bone marrow
[4]
  clinical condition of AIDS patients: improvement of the clinical condition of patients

## C[C@@H]1[C@H](O)[C@@H](C)/C=C/C=C/C=C/C=C/C=C/C=C/C=C/[C@H](O[C@@H]2O[C@H](C)[C@@H](O)[C@H](N)[C@@H]2O)C[C@@H]2O[C@](O)(C[C@@H](O)C[C@@H](O)[C@H](O)CC[C@@H](O)C[C@@H](O)CC(=O)O[C@H]1C)C[C@H](O)[C@H]2C(=O)O [AmB, amphotericin B]
[5]
  side effects of prolonged treatment: frequent side effects such as fever or serious nephrotoxicity
[2]
  inhibition of trypsin (in words): a certain inhibitory activity on trypsin
[2]; 10^-5 M
  inhibition at 10 µM: 30%
[2]; 10^-6 M, read-out: % of inhibition of trypsin
  inhibition at 1 µM: 10%
[2]; 10^-7 M
  inhibition at 0.1 µM: 5%
[2]; [9]
  inhibition at 1 µM: ~10%
[6]
  activity against enveloped DNA and RNA viruses and herpes virus strains: active in vitro
[7]
  antiviral activity on HRV14 (in words): no detectable antiviral activity
[8]
  MCC: > 5 µM

## C[C@@H]1[C@H](O)[C@@H](C)/C=C/C=C/C=C/C=C/C=C/C=C/C=C/[C@H](O[C@@H]2O[C@H](C)[C@@H](O)[C@H](NC(=O)C(N)CC(=O)O)[C@@H]2O)C[C@@H]2O[C@](O)(C[C@@H](O)C[C@@H](O)[C@H](O)CC[C@@H](O)C[C@@H](O)CC(=O)O[C@H]1C)C[C@H](O)[C@H]2C(=O)O (some centres unmarked) [N-aspartyl-AmB]
[2]; 1 μM, FIG. 1, read-out: % inhibition of trypsin relative to a control without inhibitor
  inhibition at 1 µM: ~40%

## CNC[C@H](O)[C@@H](O)[C@H](O)[C@H](O)CO [N-methylglucamine, reference compound]
[7]
  antiviral activity on HRV14 (in words): no effect on the virus

## OC[C@@H]1CC[C@H](n2cnc3c(O)ncnc32)O1 [ddI, 2',3'-dideoxyinosine]
[4]
  clinical condition of AIDS patients: improvement of the clinical condition of patients

## N N'-(2,4'-methylmorpholino)-N"-ethylguanyl!amphotericin B [MCG]
[1]
  cell-protecting properties: does not possess, according to this study, cell-protecting properties
[1]; preincubation with the virus
  direct antiviral action: has a direct antiviral action
